This is an account of results in article PMC5612656, “In vitro and in vivo effects of 2,4 diaminoquinazoline inhibitors of the decapping scavenger enzyme DcpS: Context-specific modulation of SMN transcript levels” (PLoS ONE, 2017).

Each structure is given as a SMILES string.

The subject of data set [1] is Renilla luciferase driven by the CMV promoter. Briefly: Reporter gene assay, CMV-driven Renilla luciferase. To be noted: 24 hrs. Type of data set: cell-based. On the procedure: The SMN2 reporter cell line was cultured in high-glucose DMEM supplemented with 10% (v/v) fetal bovine serum (FBS) and 1X Penicillin/Streptomycin. Reporter cells media was supplemented with hygromycin during maintenance. All cells were maintained at 37°C and […]. After seeding in 96-well white tissue culture plates at 25,000 per well, cells were incubated overnight before being exposed to different doses of compounds or DMSO for 24 hrs. The final DMSO concentration was kept constant at 0.1% (v/v). Firefly and renilla luciferase expression were assayed with DualGlo (Promega E2920) and measured on a PHERAstar FS microplate reader (BMG Labtech). Relative light units are normalized to DMSO control and expressed as a percentage.

In a further data set the test system is SMN protein. Nature of the data set: SMN protein by Western blot in SMA cells (fibroblasts, lymphoblasts, iPS-derived neural progenitor cells). To be noted: 24 hours to 7 days. Type of data set: cell-based, human. As for the experimental part:
Lysates were incubated at 95°C for 5 minutes and cleared at 14,000 RPM for 15 minutes. Cleared lysates were quantified by BCA assay. A total of 5 μg of each lysate was mixed with NuPage LDS sample buffer with […] and loaded and separated on a NuPage 10% Bis-Tris gel. Proteins were transferred to 0.2 micron nitrocellulose using the BioRad Turbo Transfer system.
A general note: In western blotting, separated proteins are transferred to a membrane and probed.

A further data set concerns 2B/- SMA mice. Nature of the data set: Survival and body weight study in 2B/- SMA mice. Type of data set: in vivo, mouse.
Data set [2] is described as follows: Plasma drug levels after P4-P16 dosing. To be noted: FVB/N background, mouse, ip.
Description: Personnel conducting studies followed the approved standard operating procedures for daily monitoring, dosing, weaning and euthanasia according to the approved study protocol. […] Line maintenance was maintained by interbreeding of the congenic line and every 4th generation mice were outbred to wild type FBV/N mice (jax # 001800) to reduce the possibility of new mutations within the line. Smn 2B mice were internally developed and maintained in the DiDonato laboratory. To generate the SMA mice used in this study an intercross between Smn 2B/2B and Smn +/- mice was performed. This generated litters in which 50% of the offspring were control (2B/+) and 50% SMA (2B/-). The day of birth was considered to be P0. If pups were born after 3pm, the following day was considered P0. At P1, pups were counted. If greater than 10 pups to a cage, pups were randomly chosen and moved to another cage to increase litter size, culled to reduce litter size or genotyped at P1 and culled at P2 to reduce litter size to 10 or fewer pups. Thereafter, no culling of pups was performed for drug studies. Individual mice were genotyped from DNA obtained from tail snips by polymerase chain reaction (PCR). All mice were weaned at P21 and separated into male and female cages. […] For the PK single dose studies a single ip injection was used. […] Body weights were recorded daily in the AM and dosing volume was adjusted accordingly. […]
Data set [3] concerns Smn transcripts in spinal cord, skeletal muscle, liver. Briefly: Smn transcripts in mouse tissues by ddPCR. Type of data set: in vivo. From the text: At P1, pups were counted.

In the case of `Nc1nc(N)c2c(OCC3CCN(Cc4c(Cl)cccc4Cl)CC3)cccc2n1` [RG3039], the “effect on CMV-driven Renilla luciferase activity” value in data set [1] is recorded as “strong effect”. For the same compound, the SMN protein result in the data set with SMN protein is “in no experimental condition tested were we able to detect an increase in SMN protein”. In addition, in the data set on 2B/- SMA mice (P < 0.05 by either test), the “effect on survival, RG3039 compared to PF-06738066” value is “slightly greater effect on survival than PF-06738066”. Further, in the data set with 2B/- SMA mice (b.i.d. i.p. P4-P20, RG3039 6 mg/kg, PF-06738066 10 mg/kg, P < 0.0001 Mantel-Cox or Gehan-Breslow-Wilcoxon), the “effect on survival of SMA mice compared to vehicle-treated SMA mice” value is on record as “statistically significant beneficial effect on survival”. In addition, the concentration at 12 h in data set [2] was found to be 4.24 ± 1.13 nM. The “Smn transcripts (exons 5/6, exons 7/8, SmnΔ7) in tissues” value in data set [3] (2B/- SMA mice, P4-P16 BID i.p.) is given as “significant increases in Smn transcripts in all tissues”. Moreover, the “SmnΔ7 transcripts in spinal cord” value in data set [3] (2B/- mice) is “trended to increase”.
